pIC50: −log10 of the molar value.
What was measured:
IDH1 R132H = IDH1 R132H (Homo sapiens, UniProt O75874, R132H); test: Assay for IDH1 R132H inhibitors (NADPH/aKG, resazurin detection); assay type: biochemical; details: enzyme assay of Example 12; read-out: IDH1R132H IC50
Procedure, shortened: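 Read-out is resorufin fluorescence (Ex544/Em590) 5 min after adding a 30 μM resazurin detection mix. Before that, mutant enzyme (0.2 μg/ml in its mix) ran 50 min at room temperature with compound, 8 uM NADPH and 2 mM aKG (mix levels) in Tris pH 7.5 with NaCl, MgCl2, BSA.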

U87MG cells = test: Cellular assay for IDH1m inhibitors: inhibition of 2-HG production (LC-MS, 48 hours) in U87MG cells; assay type: cell-based; details: Homo sapiens, U-87 MG, inhibition of 2-HG production, U87R132H cells; read-out: U87R132H IC50
Description: Cells (e.g., HT1080 or U87MG) and are grown in T125 flasks in DMEM containing 10% FBS, 1× penicillin/streptomycin and 500 ug/mL G418. They are harvested by trypsin and seeded into 96 well white bottom plates at a density of 5000 cell/well in 100 ul/well in DMEM with 10% FBS. No cells are plates in columns 1 and 12. Cells are incubated overnight at 37° C. in 5% CO2. The next day compounds are made up at 2× concentration and 100 ul are added to each cell well. The final concentration of DMSO is 0.2% and the DMSO control wells are plated in row G. The plates are then placed in the incubator for 48 hours. At 48 hours, 100 μl of media is removed from each well and analyzed by LC-MS for 2-HG concentrations. The cell plate is placed back in the incubator for another 24 hours. At 72 hours post compound addition, 10 mL/plate of Promega Cell Titer Glo reagent is thawed and mixed. The cell plate is removed from the incubator and allowed to equilibrate to room temperature. Then 100 ul of reagent is added to each well of media. The cell plate is then placed on an orbital shaker for 10 minutes and then allowed to sit at room temperature for 20 minutes. The plate is then read for luminescence with an integration time of 500 ms.
The IC50 for inhibition of 2-HG production (concentration of test compound to reduce 2HG production by 50% compared to control) in these two cell lines for various compounds of formula I is set forth in Table 4 above.

HT1080 cells = test: Cellular assay for IDH1m inhibitors: inhibition of 2-HG production (LC-MS, 48 hours) in HT1080 cells; assay type: cell-based; details: Homo sapiens, HT-1080; inhibition of 2-HG production, HT1080 cells; read-out: HT1080 IC50
Procedure, shortened: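 The read-out is 2-HG in culture medium, measured by LC-MS after 48 h of compound exposure (0.2% DMSO) in cells plated overnight at 5000 per well in DMEM/10% FBS. IC50 is 50% reduction relative to DMSO wells. Luminescent viability (Cell Titer Glo) followed at 72 h.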

IDH1 R132H, sequence (O75874 whole entry R132H): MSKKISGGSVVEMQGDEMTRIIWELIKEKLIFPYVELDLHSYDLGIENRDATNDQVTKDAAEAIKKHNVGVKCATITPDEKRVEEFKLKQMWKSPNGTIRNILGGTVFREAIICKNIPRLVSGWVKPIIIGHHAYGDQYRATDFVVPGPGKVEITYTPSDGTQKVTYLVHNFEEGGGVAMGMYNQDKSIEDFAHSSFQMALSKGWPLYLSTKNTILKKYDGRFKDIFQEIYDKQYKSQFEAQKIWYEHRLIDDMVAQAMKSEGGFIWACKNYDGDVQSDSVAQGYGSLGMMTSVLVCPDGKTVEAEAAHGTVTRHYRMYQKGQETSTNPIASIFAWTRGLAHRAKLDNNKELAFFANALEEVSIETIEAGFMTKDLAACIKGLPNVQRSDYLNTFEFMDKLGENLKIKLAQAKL

SMILES | pIC50 (IDH1 R132H) | pIC50 (U87MG cells) | pIC50 (HT1080 cells)
C=Cc1cncc(-c2cc(C#N)c(N3CCN(C(=O)C4CC4)[C@H](C4CC4)C3)nc2C2CC2)n1 [Compound 515, (R)-2-(4-(cyclopropanecarbonyl)-3-cyclopropylpiperazin-1-yl)-6-cyclopropyl-5-(6-vinylpyrazin-2-yl)nicotinonitrile] | 6.00 to 6.30 |  | 5.00 to 6.00
C=Cc1cc(-c2cc(C#N)c(N3CCN(C(=O)CCO)[C@H](C4CC4)C3)nc2C2CC2)c2cccnc2n1 [Compound 691] |  | > 6.30 | 
C=Cc1ccc(Nc2cc(C#N)c(N3CCN(C(=O)CCO)[C@H](C)C3)nc2C2CC2)cn1 [Compound 577, (R)-6-cyclopropyl-2-(4-(3-hydroxypropanoyl)-3-methylpiperazin-1-yl)-5-((6-vinylpyridin-3-yl)amino)nicotinonitrile] | > 6.30 |  | > 6.30
COCCC(=O)N1CCN(c2nc(C3CC3)c(Oc3ccnc(Cl)c3)cc2C#N)C[C@H]1C [Compound 668, (R)-5-((2-chloropyridin-4-yl)oxy)-6-cyclopropyl-2-(4-(3-methoxypropanoyl)-3-methylpiperazin-1-yl)nicotinonitrile] | > 6.30 |  | 6.00 to 6.30
C=Cc1ccnc(Nc2cc(C#N)c(N3CCN(C(=O)CCCO)[C@H](C4CC4)C3)nc2C2CC2)c1 [Compound 815, (R)-6-cyclopropyl-2-(3-cyclopropyl-4-(4-hydroxybutanoyl)piperazin-1-yl)-5-((4-vinylpyridin-2-yl)amino)nicotinonitrile] | > 6.30 |  | > 6.30
C=Cc1nc(-c2cc(C#N)c(N3CCN(C(=O)C4CC4)[C@H](C4CC4)C3)nc2C2CC2)c2ccccc2n1 [Compound 669, (R)-2-(4-(cyclopropanecarbonyl)-3-cyclopropylpiperazin-1-yl)-6-cyclopropyl-5-(2-vinylquinazolin-4-yl)nicotinonitrile] | > 6.30 |  | > 6.30
C=Cc1cc(-c2cc(C#N)c(N3CCN(C(=O)CCC=O)[C@H](C)C3)nc2C2CC2)ccn1 [Compound 607, (R)-2-cyclopropyl-6-(3-methyl-4-(4-oxobutanoyl)piperazin-1-yl)-2′-vinyl-[3,4′-bipyridine]-5-carbonitrile] | > 6.30 |  | > 6.30
C=C(C)c1cc(-c2cc(C#N)c(N3CCN(C(=O)CCOC)[C@H](C)C3)nc2C2CC2)ncn1 [Compound 598, (R)-6-cyclopropyl-2-(4-(3-methoxypropanoyl)-3-methylpiperazin-1-yl)-5-(6-(prop-1-en-2-yl)pyrimidin-4-yl)nicotinonitrile] | > 6.30 |  | 6.00 to 6.30
C=Cc1ccnc(Nc2cc(C#N)c(N3CCN(C(=O)CC4CCC4)[C@H](C4CC4)C3)nc2C2CC2)c1 [Compound 817, (R)-2-(4-(2-cyclobutylacetyl)-3-cyclopropylpiperazin-1-yl)-6-cyclopropyl-5-((4-vinylpyridin-2-yl)amino)nicotinonitrile] | > 6.30 |  | > 6.30
CCS(=O)(=O)N1CCN(c2cc(C#N)c(N3CCN(C(=O)C4CC4)[C@H](C4CC4)C3)nc2C2CC2)CC1 [Compound 529, (R)-2-(4-(cyclopropanecarbonyl)-3-cyclopropylpiperazin-1-yl)-6-cyclopropyl-5-(4-(ethylsulfonyl)piperazin-1-yl)nicotinonitrile] | > 6.30 |  | 6.00 to 6.30
C=Cc1cc(-c2cc(C#N)c(N3CCN(C(=O)C[C@H]4CCCO4)[C@H](C4CC4)C3)nc2C2CC2)ccn1 [Compound 822] | > 6.30 |  | > 6.30

The next lines start with the values.

pIC50 (IDH1 R132H) | pIC50 (U87MG cells) | pIC50 (HT1080 cells) | SMILES
> 6.30 | 6.00 to 6.30 |  | N#Cc1cc(-c2cnnc(OS(=O)(=O)C(F)(F)F)c2)c(C2CC2)nc1N1CCN(C(=O)C2CC2)[C@H](C2CC2)C1 [Compound 687, (R)-5-(5-cyano-6-(4-(cyclopropanecarbonyl)-3-cyclopropylpiperazin-1-yl)-2-cyclopropylpyridin-3-yl)pyridazin-3-yl trifluoromethanesulfonate]
> 6.30 | > 6.30 |  | C=Cc1cc(-c2cc(C#N)c(N3CCN(C(=O)CCOC)[C@H](C4CC4)C3)nc2C2CC2)c2ccncc2n1 [Compound 658, (R)-6-cyclopropyl-2-(3-cyclopropyl-4-(3-methoxypropanoyl)piperazin-1-yl)-5-(2-vinyl-1,7-naphthyridin-4-yl)nicotinonitrile]
> 6.30 | > 6.30 |  | C=Cc1cc(-c2c(C3CC3)nc(N3CCN(C(=O)CCO)[C@H](C(C)C)C3)c(C#N)c2C)cnn1 [Compound 773, (R)-6-cyclopropyl-2-(4-(3-hydroxypropanoyl)-3-isopropylpiperazin-1-yl)-4-methyl-5-(6-vinylpyridazin-4-yl)nicotinonitrile]
> 6.30 | > 6.30 |  | C=Cc1ccnc(Nc2cc(C#N)c(N3CCN(C(=O)CCOC)[C@H](C(C)C)C3)nc2C2CC2)c1 [Compound 758, (R)-6-cyclopropyl-2-(3-isopropyl-4-(3-methoxypropanoyl)piperazin-1-yl)-5-((4-vinylpyridin-2-yl)amino)nicotinonitrile]
> 6.30 |  | > 6.30 | N#Cc1cc(-c2cccc3c[n+]([O-])ccc23)c(C2CC2)nc1N1CCN(C(=O)C2CC2)[C@H](C2CC2)C1 [Compound 439, (R)-5-(5-cyano-6-(4-(cyclopropanecarbonyl)-3-cyclopropylpiperazin-1-yl)-2-cyclopropylpyridin-3-yl)isoquinoline 2-oxide]
> 6.30 |  | > 6.30 | C=Cc1cc(-c2cc(C#N)c(N3CCN(C(=O)CCO)[C@H](C4CC4)C3)nc2C2CC2)c2ccccc2n1 [Compound 571, (R)-6-cyclopropyl-2-(3-cyclopropyl-4-(3-hydroxypropanoyl)piperazin-1-yl)-5-(2-vinylquinolin-4-yl)nicotinonitrile]
> 6.30 |  | > 6.30 | C=Cc1ccnc(-c2cc(C#N)c(N3CCN(C(=O)CCOC)[C@H](C)C3)nc2C2CC2)c1 [Compound 596, (R)-2′-cyclopropyl-6′-(4-(3-methoxypropanoyl)-3-methylpiperazin-1-yl)-4-vinyl-2,3′-bipyridine-5′-carbonitrile]
> 6.30 |  | 6.00 to 6.30 | N#Cc1cc(-c2cccc3c(O)nccc23)c(C2CC2)nc1N1CCN(C(=O)C2CC2)[C@H](C2CC2)C1 [Compound 566, (R)-2-(4-(cyclopropanecarbonyl)-3-cyclopropylpiperazin-1-yl)-6-cyclopropyl-5-(1-hydroxyisoquinolin-5-yl)nicotinonitrile]
> 6.30 |  | > 6.30 | C=Cc1ccc2c(-c3cc(C#N)c(N4CCN(C(=O)CCO)[C@H](C5CC5)C4)nc3C3CC3)cccc2n1 [Compound 569, (R)-6-cyclopropyl-2-(3-cyclopropyl-4-(3-hydroxypropanoyl)piperazin-1-yl)-5-(2-vinylquinolin-5-yl)nicotinonitrile]
> 6.30 |  | 5.00 to 6.00 | CCS(=O)(=O)N1CCN(c2cc(C#N)c(N3CCN(C(=O)CC(F)(F)F)[C@H](C4CC4)C3)nc2C2CC2)CC1 [Compound 559]
> 6.30 |  | > 6.30 | C=Cc1cc(-c2cc(C#N)c(N3CCN(C(=O)C4CC4)[C@@H](C4CC4)C3)nc2C2CC2)ncn1 [Compound 578, (S)-2-(4-(cyclopropanecarbonyl)-3-cyclopropylpiperazin-1-yl)-6-cyclopropyl-5-(6-vinylpyrimidin-4-yl)nicotinonitrile]
> 6.30 |  | > 6.30 | C=Cc1cc(Nc2c(C3CC3)nc(N3CCN(C(=O)CCOC)[C@H](C(C)C)C3)c(C#N)c2C)ccn1 [Compound 807, (R)-6-cyclopropyl-2-(3-isopropyl-4-(3-methoxypropanoyl)piperazin-1-yl)-4-methyl-5-((2-vinylpyridin-4-yl)amino)nicotinonitrile]
> 6.30 |  | 6.00 to 6.30 | C=C(C)c1cc(-c2cc(C#N)c(N3CCN(C(=O)C4CC4)[C@H](C4CC4)C3)nc2C2CC2)ccn1 [Compound 544, (R)-6-(4-(cyclopropanecarbonyl)-3-cyclopropylpiperazin-1-yl)-2-cyclopropyl-2′-(prop-1-en-2-yl)-3,4′-bipyridine-5-carbonitrile]
> 6.30 |  | > 6.30 | C=Cc1cc(-c2cc(C#N)c(N3CCN(C(=O)CCOC)[C@H](C)C3)nc2C2CC2)cc(C=C)n1 [Compound 624, (R)-2-cyclopropyl-6-(4-(3-methoxypropanoyl)-3-methylpiperazin-1-yl)-2′,6′-divinyl-[3,4′-bipyridine]-5-carbonitrile]
